Numbers after ± are expanded uncertainties.
Experiments:
[1] = xn = mol fraction of the nth substance listed; conditions: 298.2 K, 101 kPa, Liquid; for viscosity: Capillary tube (Ostwald / Ubbelohde) method; for mass density: Pycnometric method; for electrical conductivity: conductivity meter
[2] = Crystal; DTA

Normal melting temperature [2] [°C]	Structure (SMILES)	viscosity ([1]; x1 = 0.6667) [mPa·s]	viscosity ([1]; x1 = 0.75) [mPa·s]	viscosity ([1]; x1 = 0.7963) [mPa·s]	viscosity ([1]; x1 = 0.8333) [mPa·s]	viscosity ([1]; x1 = 0.8571) [mPa·s]	mass density ([1]; x1 = 0.6667) [kg/m3]	mass density ([1]; x1 = 0.75) [kg/m3]	mass density ([1]; x1 = 0.7963) [kg/m3]	mass density ([1]; x1 = 0.8333) [kg/m3]	mass density ([1]; x1 = 0.8571) [kg/m3]	electrical conductivity ([1]; x1 = 0.6667) [S/m]	electrical conductivity ([1]; x1 = 0.75) [S/m]	electrical conductivity ([1]; x1 = 0.7963) [S/m]	electrical conductivity ([1]; x1 = 0.8333) [S/m]	electrical conductivity ([1]; x1 = 0.8571) [S/m]
	Cc1ccccc1O [2-methylphenol] + C[N+](C)(C)CCO.[Cl-]	207.41 ± 12	77.65 ± 4	46.95 ± 2	34.9 ± 1.4	27.82 ± 1.1	1077.6 ± 1.2	1070.7 ± 1.2	1066.4 ± 1.2	1063.1 ± 1.2	1060.6 ± 1.2	0.083 ± 0.001	0.121 ± 0.002	0.141 ± 0.002	0.145 ± 0.002	0.138 ± 0.002
304.1 ± 0.5	C[N+](C)(C)CCO.[Cl-] [choline chloride]															

— the NIST ThermoML archive (doi:10.1021/je300997v)
